Results as given in patent US7504403B2, “Substituted heterocyclic compounds and methods of use” (Amgen Inc., priority 2004, dated 2009).

These molecules were tested on LPS induced TNF release (assay: Lipopolysaccharide-Activated THP1 Cell TNF Production Assay). Conditions: Homo sapiens, THP-1.
Format: cell-based
Protocol: Lipopolysaccharide-Activated THP1 Cell TNF Production Assay
THP1 cells are resuspended in fresh THP1 media (RPMI 1640, 10% heat-inactivated FBS, 1×PGS, 1×NEAA, plus 30 μM βME) at a concentration of 1E6/mL. One hundred microliters of cells per well are plated in a polystyrene 96-well tissue culture. One microgram per mL of bacterial LPS is prepared in THP1 media and is transferred to the wells. Test compounds are dissolved in 100% DMSO and are serially diluted 3 fold in a polypropylene 96-well microtiter plate (drug plate). HI control and LO control wells contain only DMSO. One microliter of test compound from the drug plate followed by 10 μL of LPS are transferred to the cell plate. The treated cells are induced to synthesize and secrete TNF-α at 37° C. for 3 h. Forty microliters of conditioned media are transferred to a 96-well polypropylene plate containing 110 μL of ECL buffer (50 mM Tris-HCl pH 8.0, 100 mM NaCl, 0.05% Tween 20, 0.05% NaN3 and 1%FBS) supplemented with 0.44 nM MAB610 monoclonal Ab (R&D Systems), 0.34 nM ruthenylated AF210NA polyclonal Ab (R&D Systems) and 44 μg/mL sheep anti-mouse M280 Dynabeads (Dynal). After a 2 h incubation at room temperature with shaking, the reaction is read on the ECL M8 Instrument (IGEN Inc.). A low voltage is applied to the ruthenylated TNF-α immune complexes, which in the presence of TPA (the active component in Origlo), results in a cyclical redox reaction generating light at […]. The amount of secreted TNF-α in the presence of compound compared with that in the presence of DMSO vehicle alone (HI control) is calculated using the formula: % control (POC)=(cpd−average LO)/(average HI−average LO)*100. Data (consisting of POC and inhibitor concentration in μM) is fitted to a 4-parameter equation (y=A+((B−A)/(1+((x/C)^D))), where A is the minimum y (POC) value, B is the maximum y (POC), C is the x (cpd concentration) at the point of inflection and D is the slope factor) using a Levenburg-Marquardt non-linear regression algorithm.
For `CC(Cc1ccc(CN)cc1)Nc1nccc(N2CCC(=O)N3CC=C(c4ccccc4)N=C32)n1` (stereo not drawn) [Example 63, 1-{2-[2-(4-Aminomethyl-phenyl)-1-methyl-ethylamino]-pyrimidin-4-yl}-8-phenyl-1,2,3,6-tetrahydro-pyrimido[1,2-a]pyrimidin-4-one], the IC50 was ≤ 20 µM.
For `O=c1cc(-c2ccccc2)cc2n1CCCN2c1ccnc(NCCc2ccccc2)n1` [Example 74, 1-(2-Phenethylamino-pyrimidin-4-yl)-8-phenyl-1,2,3,4-tetrahydro-pyrido[1,2-a]pyrimidin-6-one], the IC50 was ≤ 20 µM.
In the case of `CC(Cc1cccc(CN)c1)Nc1nccc(N2CCCn3c2nc(-c2ccccc2)c(N)c3=O)n1` (stereo not drawn) [Example 14, 3-Amino-9-{2-[2-(3-aminomethyl-phenyl)-1-methyl-ethylamino]-pyrimidin-4-yl}-2-phenyl-6,7,8,9-tetrahydro-pyrimido[1,2-a]pyrimidin-4-one], the IC50 is reported as ≤ 20 µM.
